Reference: patent US20090298178A1, “GROWTH FACTORS FOR PRODUCTION OF DEFINITIVE ENDODERM” (priority 2008, published 2009)

Assays:
[1] = tested on: hES cells (CyT49; passage 35); experiment: Differentiation of hES cells to definitive endoderm with activin A plus Wnt3a or GSK3 inhibitors, real-time quantitative PCR at 48 hours (Example 4); format: cell-based, human; conditions: with 100 ng/mL activin A; inhibitor at 10 or 100 nM; FIG. 6A-B
Experimental: Undifferentiated hES cells (CyT49; passage 35) were maintained substantially as described in Example 1 above. Ten hES cell culture plates were then differentiated in RPMI (Mediatech) supplemented with Glutamax, penicillin/streptomycin, and varying concentrations of defined FBS (HyClone). FBS concentrations were 0% for the first 24 h and 0.2% for the second 24 h. Additionally, 0.1% BSA (Invitrogen/Gibco) was added on the first day only. All plates received 100 ng/mL activin A for both days. […] Replicate samples were collected from each culture condition at 48 hours after differentiation commenced and analyzed for relative gene expression using real-time quantitative PCR.

[2] = tested on: hES cells (CyT49; passage 41); experiment: Differentiation of hES cells to definitive endoderm (stage 1) with TGF-beta member growth factors, real-time quantitative PCR (Example 1); format: cell-based, human; conditions: for effectiveness for induction of definitive endoderm differentiation derived from hES cells: compared with activin A; for fold induction of SOX17 gene expression as compared to undifferentiated hESCs / fold induction of FOXA2 gene expression as compared to undifferentiated hESCs: 100 ng/ml factor, 75 ng/mL Wnt3a on first day, day 2 of differentiation; for fold induction of SOX17 gene expression as compared to undifferentiated hESCs: FIG. 2C; for efficiency in generating definitive endoderm cell populations: sufficient amounts, compared to Activin A and activin B
From the text: Human embryonic stem (hES) cells were differentiated in vitro to definitive endoderm (stage 1) for about 2-4 days substantially as described in D'Amour et al. 2006 Nat Biotechnol 24(11):1392-401 and U.S. Patent Application Publication Number 2007/0154984, which are herein incorporated in their entireties. Briefly, undifferentiated human embryonic stem (hES) cells were maintained on mouse embryo fibroblast feeder layers (Millipore, formerly Chemicon or Specialty Media) or on human serum coated plates (Valley Biomedical) in DMEM/F12 (Mediatech) supplemented with 20% KnockOut serum replacement (Invitrogen/Gibco), 1 mM nonessential amino acids (Invitrogen/Gibco), Glutamax (Invitrogen/Gibco), penicillin/streptomycin (Invitrogen/ Gibco), 0.55 mM 2-mercaptoethanol (Invitrogen/Gibco) and 4 ng/ml to 20 ng/mL recombinant human FGF2 (R&D Systems). Low dosages of Activin A (10-25 ng/ml, R&D Systems) were added to the growth culture medium to help maintain undifferentiated growth. Cultures were either manually passaged, or enzymatically passaged using 5 ug/mL dispase (Invitrogen/Gibco), or passaged using Accutase (Innovative Cell Technologies #AT104) at 1:4-1:15 split ratios every 3-7 days. Before initiating differentiation, hES cells were given a brief wash in PBS+/+ (PBS+/+ refers to PBS containing both calcuim and magnesium) (Mediatech).
Four hES cell culture plates (CyT49; passage 41) were then differentiated in RPMI (Mediatech) supplemented with Glutamax, penicillin/streptomycin, and with either: i) 100 ng/mL activin A, ii) 100 ng/mL of activin B (R&D Systems), iii) 100 ng/mL of GDF8, or iv) 100 ng/mL of GDF11 (R&D Systems) and varying concentrations of defined FBS (HyClone). Additionally, 0.1% BSA (Invitrogen/Gibco) and 75 ng/mL Wnt3a (R&D Systems) were added on the first day (d0) of differentiation. FBS concentrations were 0% for the first 24 h and 0.2% for the second 24 h. Replicate samples were collected from each culture condition at 0, 24 and 48 hours after differentiation commenced and analyzed for relative gene expression using real-time quantitative PCR.

[3] = tested on: hES cells (CyT49); experiment: Further differentiation of definitive endoderm to pancreatic endoderm and endocrine cells, real-time PCR at day 9 (Example 2); format: cell-based, human; conditions: definitive endoderm produced with 100 ng/mL factor, compared with activin A, FIG. 3
Experimental: (§1) Human ES cell cultures were maintained and differentiated substantially as described above in Example 1, and further differentiated to foregut endoderm (stage 2) and then onto pancreatic endoderm and pancreatic endocrine cells (stages 3 and 4). After 48 hours of differentiation to definitive endoderm (stage 1) the cells were briefly washed in PBS+/+ and then further differentiated in RPMI supplemented with 0.2% FBS, Insulin-Transferrin-Selenium (1:1000), Glutamax, penicillin/streptomycin, and 25 ng/mL KGF (R&D Systems) for 3 days. On the first day of stage 2, the culture also received TGF-beta inhibitor No. 4 (3-(6-Methylpyridin-2-yl)-4-(4-quinolyl)-1-phenylthiocarbamoyl-1H-pyrazole) at 2.5 uM (EMD Bioscience). After three days in stage 2 the cells were then differentiated for one day in DMEM with B27 supplement (1:100) containing all-trans retinoic acid (RA) at 0.2 uM and KAAD-cyclopamine at 0.25 uM. Following the single day of retinoid exposure, the cells were cultured in DMEM with B27 (1:100) containing noggin at 40 ng/ml. At day 9 of total differentiation, replicate samples were collected from each culture condition and analyzed for relative gene expression using real-time quantitative PCR.

[4] = tested on: hES cells (CyT49; passage 48); experiment: Differentiation of hES cells with other TGF-beta family member proteins, real-time quantitative PCR (Example 3); format: cell-based, human; conditions: for CDX2 induction level, fold higher expression over that observed with the activin A treatment: GDF3 500 ng/ml, TGF-beta3 100 ng/mL, FIG. 4C
Experimental: Undifferentiated human embryonic stem (hES) cells (CyT49; passage 48) were maintained substantially as described in Example 1 above. Seven hES cell culture plates were then differentiated in RPMI (Mediatech) supplemented with Glutamax, penicillin/streptomycin, and either: i) activin A (100 ng/ml), ii) TGF-beta1 (100 ng/ml), iii) TGF-beta3 (100 ng/mL), iv) TGF-beta2 (200 ng/ml), v) GDF3 (500 ng/ml), vi) GDF9 (4 ug/ml), or vii) GDF15 (2.5 ug/ml) and varying concentrations of defined FBS (HyClone). Additionally, 0.1% BSA (Invitrogen/Gibco) and 75 ng/mL Wnt3a (R&D Systems) were added on the first day (d0) of differentiation. FBS concentrations were 0% for the first 24 h and 0.2% for the second 24 h. Replicate samples were collected from each culture condition at 0, 24 and 48 hours after differentiation commenced and analyzed for relative gene expression using real-time quantitative PCR.

[5] = tested on: hES cells (CyT49; passage 48); experiment: Further differentiation to pancreatic endoderm and endocrine cells, real-time PCR at 12 days (Example 3); format: cell-based, human; conditions: 12 days of differentiation
Experimental: as §1
Such conditions are described in Example 2 above. In this example, however, the stage 4 noggin treatment lasted for 6 days and replicate samples were taken for real-time PCR analysis at a total of 12 days of differentiation as compared to 9 days of differentiation in Example 2. […] Similarly, the pancreatic endoderm or endocrine cells expressing endocrine markers NKX2-2 and INS were typically not detected in the non-activin A treated plates (FIG. 5C-D). Stated another way, the activin A treated plates were 1200-fold or more higher in expression of these markers than the non-Activin A treated plates.

[6] = tested on: hES cells; conditions: McLean et al. Stem Cells 25:29-38 2007; cited from earlier work

## COc1ccc(CNC(=O)Nc2ncc([N+](=O)[O-])s2)cc1 [GSK3 inhibitor No. 8]
[1]
  differentiation of hES cells to definitive endoderm: Neither GSK3 inhibitor No. 9 (“BIO”) nor GSK3 inhibitor No. 8 (GVIII) at 10 or 100 nM resulted in substantial differentiation

## O=C1Nc2cc(Br)ccc2/C1=C1/Nc2ccccc2/C1=N\O [GSK3 inhibitor No. 9]
[1]
  differentiation of hES cells to definitive endoderm: Neither GSK3 inhibitor No. 9 (“BIO”) nor GSK3 inhibitor No. 8 (GVIII) at 10 or 100 nM resulted in substantial differentiation

## GDF8: TGF-beta family member, also referred to as myostatin
[2]; 100 ng/mL
  effectiveness for induction of definitive endoderm differentiation derived from hES cells: as effective as activin A
[2]
  fold induction of SOX17 gene expression as compared to undifferentiated hESCs: 1324 fold
  efficiency in generating definitive endoderm cell populations: more efficient compared to activin B
[2]; FIG. 2D
  fold induction of FOXA2 gene expression as compared to undifferentiated hESCs: 438 fold
[3]
  subsequent differentiation of definitive endoderm to pancreatic endoderm expressing PDX1 and PTF1A or endocrine cells expressing NKX2-2: as effective

## GDF11: TGF-beta family member with approximately 90% identity to myostatin
[2]; 100 ng/mL
  effectiveness for induction of definitive endoderm differentiation derived from hES cells: as effective as activin A
[2]
  fold induction of SOX17 gene expression as compared to undifferentiated hESCs: 1306 fold
  efficiency in generating definitive endoderm cell populations: more efficient compared to activin B
[2]; FIG. 2D
  fold induction of FOXA2 gene expression as compared to undifferentiated hESCs: 382 fold
[3]
  subsequent differentiation of definitive endoderm to pancreatic endoderm expressing PDX1 and PTF1A or endocrine cells expressing NKX2-2: as effective

## activin A: TGF-beta family growth factor used at 100 ng/mL to produce definitive endoderm
[4]; activin A 100 ng/ml, other ligands 100 ng/ml to 4 ug/ml, 75 ng/mL Wnt3a on first day, FIG. 4A-B
  definitive endoderm production as indicated by induction of SOX17 and CER1 gene expression: definitive endoderm was produced only in the activin A treatment condition
[5]; FIG. 5C-D
  expression of endocrine markers NKX2-2 and INS, fold higher than the non-Activin A treated plates: ≥ 1200 fold
[5]; FIGS. 5A-D
  production of pancreatic endoderm and endocrine cell types as indicated by induction of PDX1, PTF1A, NKX2-2 and INS gene expression: produced only in the activin A treatment condition
[5]; comparator GDF15, FIG. 5A
  PDX1 expression level, fold higher in the presence of activin A as compared to GDF15: 14,497 fold
[5]; comparator TGF-beta1, FIG. 5A
  PDX1 expression level, fold higher in the presence of activin A as compared to TGF-beta1: 1413 fold

## insulin: protein that binds to the insulin receptor and can induce signaling
[6]
  insulin concentration detrimental for the production of definitive endoderm cells from hES cells: ≥ 0.2 µg/mL

B1: activin B: TGF-beta family growth factor (R&D Systems) (protein, UniProt P09529 293-407, looked up)
Inhibin beta B chain: GLECDGRTNLCCRQQFFIDFRLIGWNDWIIAPTGYYGNYCEGSCPAYLAGVPGSASSFHTAVVNQYRMRGLNPGTVNSCCIPTKLSTMSMLYFDDEYNIVKRDVPNMIVEECGCA
[2]; 100 ng/mL, FIG. 2B, indicates mesoderm differentiation
  expression of ISL1 as compared to activin A treated cultures: higher expression
[2]; 100 ng/mL, FIG. 2D
  FOXA2 induction (in words): lower
[3]
  subsequent differentiation of definitive endoderm to pancreatic endoderm expressing PDX1 and PTF1A or endocrine cells expressing NKX2-2: less effective

B2: GDF3: TGF-beta family member also known as Vg-related gene 2 (protein, UniProt Q9NR23 251-364, looked up)
Growth/differentiation factor …: AAIPVPKLSCKNLCHRHQLFINFRDLGWHKWIIAPKGFMANYCHGECPFSLTISLNSSNYAFMQALMHAVDPEIPQAVCIPTKLSPISMLYQDNNDNVILRHYEDMVVDECGCG
[4]
  CDX2 induction level, fold higher expression over that observed with the activin A treatment: 900 fold

B3: TGF-beta3: isoform of transforming growth factor beta (protein, UniProt P10600 301-412, looked up)
Transforming growth factor …: ALDTNYCFRNLEENCCVRPLYIDFRQDLGWKWVHEPKGYYANFCSGPCPYLRSADTTHSTVLGLYNTLNPEASASPCCVPQDLEPLTILYYVGRTPKVEQLSNMVVKSCKCS
[4]
  CDX2 induction level, fold higher expression over that observed with the activin A treatment: 2,667 fold
